Laboratory results taken from patent publication US10590143B2, “Herbicidally active (alkynyl-phenyl)-substituted cyclic dione compounds and derivatives thereof” (Syngenta Limited, priority 2013, dated 2020).

What was measured:
Assay in all cases: Biological Example 2 glasshouse assay for herbicidal activity
Assay type in all cases: in vivo
[1] = test system: Zea mays (ZEAMX, corn, maize, e.g. volunteer corn); details: post-emergence, 14 or 15 DAA
Method: (§1) Seeds of a variety of monocotyledonous and dicotyledonous test plants are sown in standard soil in pots. The plants are cultivated for one day (for pre-emergence) or for about 12 days (range=10-13 days) (for post-emergence) under controlled conditions in a glasshouse (warm climate species at 24/18° C., cool climate species at 20/16° C., both at day/night; 16 hours light; 65% humidity).
(§2) An “instant formulation”, known as the “IF50”, containing 50 g/litre (i.e. 5% w/v) of the “technical” (i.e. unformulated) active ingredient is prepared by dissolving the active ingredient in a mixture of organic solvents and emulsifier, details of which are provided in the Table below. This IF50 is then mixed with a small, variable amount of acetone to aid dissolution, before addition of a 0.2% v/v aqueous solution of the adjuvant X-77 (which is a mixture of alkyl aryl polyoxyethylene glycols and free fatty acids in isopropanol, CAS Registry number 11097-66-8), as the aqueous diluent, to form an aqueous spray solution which contains a predetermined concentration of the active ingredient (which varies depending on the application rate of the active ingredient to the plants) and 0.2% v/v of the adjuvant X-77. This aqueous spray solution is then sprayed onto the plants, after one day's cultivation (for pre-emergence) or after about 12 days' cultivation (for post-emergence).
(§3) The test plants are then grown on, in a glasshouse (greenhouse) under controlled conditions (at either 24/18° C. or 20/16° C. (day/night) as mentioned above; 16 hours light; 65% humidity) and are watered twice daily. Either 14 or 15 days after application of the herbicide (14 or 15 DAA) (for post-emergence), or 20 days after application of the herbicide (20 DAA) (for pre-emergence), the test plants are evaluated visually, and an assessed percentage phytotoxicity score is given for each herbicidal application on each plant species (where 100%=total damage to plant; 0%=no damage to plant).
(§4) Some of the typical test plants are as follows: • Cool climate crop plants: Triticum aestivum (TRZAW, winter wheat), Brassica napus (BRSNN, rape, also called oilseed rape or rapeseed), Beta vulgaris (BEAVA, sugarbeet). • Warm climate crop plants: Glycine max (GLXMA, soybean). • Cool climate (“cool season”) grassy monocotyledonous weeds: Alopecurus myosuroides (ALOMY), Avena fatua (AVEFA), Lolium perenne (LOLPE), Poa annua (POAAN), Bromus tectorum (BROTE). • Warm climate (“warm season”) grassy monocotyledonous weeds: Setaria faberi (SETFA), SORVU (Sorghum bicolor (L.) Moench ssp. Bicolor, or Sorghum vulgare Pers.), Digitaria sanguinalis (DIGSA), Echinochloa crus-galli (ECHCG), Brachiaria plantaginea (BRAPL); Zea mays (ZEAMX, corn, maize, e.g. volunteer corn).

[2] = test system: Brassica napus (BRSNN, rape); details: post-emergence, 14 or 15 DAA, 0.2% v/v X-77
Method: as §1, §2, §3, §4

[3] = test system: Alopecurus myosuroides (ALOMY); details: post-emergence, 360 h, 14 or 15 DAA, 0.2% v/v X-77, read-out: percentage phytotoxicity ALOMY
Method: as §1, §2, §3, §4

[4] = test system: Triticum aestivum (TRZAW, winter wheat); details: post-emergence, 360 h, 14 or 15 DAA, 0.2% v/v X-77, read-out: percentage phytotoxicity TRZAW
Method: as §1, §2, §3, §4

[5] = test system: Beta vulgaris (BEAVA, sugarbeet); details: post-emergence, 360 h, 14 or 15 DAA, 0.2% v/v X-77, read-out: percentage phytotoxicity BEAVA
Method: as §1, §2, §3, §4

[6] = test system: Brachiaria plantaginea (BRAPL); details: Urochloa plantaginea, post-emergence, 360 h, 14 or 15 DAA, 0.2% v/v X-77, read-out: percentage phytotoxicity BRAPL
Method: as §1, §2, §3, §4

[7] = test system: Glycine max (GLXMA, soybean); details: post-emergence, 360 h, 14 or 15 DAA, 0.2% v/v X-77, read-out: percentage phytotoxicity GLXMA
Method: as §1, §2, §3, §4

[8] = test system: Digitaria sanguinalis (DIGSA); details: post-emergence, 360 h, 14 or 15 DAA, 0.2% v/v X-77, read-out: percentage phytotoxicity DIGSA
Method: as §1, §2, §3, §4

[9] = test system: Echinochloa crus-galli (ECHCG); details: post-emergence, 14 or 15 DAA; for percentage phytotoxicity ECHCG: 0.2% v/v X-77
Method: as §1, §2, §3, §4

Lolium perenne (LOLPE) = details: post-emergence, 14 or 15 DAA
Method: as §1, §2, §3, §4

Avena fatua (AVEFA) = details: post-emergence, 360 h, 14 or 15 DAA, 0.2% v/v X-77, read-out: percentage phytotoxicity AVEFA
Method: as §1, §2, §3, §4

[10] = test system: SORVU (Sorghum bicolor (L.) Moench ssp. Bicolor, or Sorghum vulgare Pers.); details: post-emergence, 360 h, 14 or 15 DAA, 0.2% v/v X-77, read-out: percentage phytotoxicity SORVU
Method: as §1, §2, §3, §4

Setaria faberi (SETFA) = details: post-emergence, 360 h, 14 or 15 DAA, 0.2% v/v X-77, read-out: percentage phytotoxicity SETFA
Method: as §1, §2, §3, §4

[11] = Zea mays, 360 h, 0.2% v/v X-77, read-out: percentage phytotoxicity ZEAMX
[12] = Zea mays, 360 h, 250 g/ha, 0.2% v/v X-77, read-out: percentage phytotoxicity ZEAMX
[13] = Brassica napus, 360 h, read-out: percentage phytotoxicity BRSNN
[14] = Brassica napus, 360 h, 250 g/ha, read-out: percentage phytotoxicity BRSNN
[15] = Echinochloa crus-galli, 360 h, 30 g/ha, 0.2% v/v X-77, read-out: percentage phytotoxicity ECHCG
[16] = Echinochloa crus-galli, 360 h, 250 g/ha, 0.2% v/v X-77, read-out: percentage phytotoxicity ECHCG
[17] = Lolium perenne, 360 h, 0.2% v/v X-77, read-out: percentage phytotoxicity LOLPE
[18] = Lolium perenne, 360 h, 250 g/ha, 0.2% v/v X-77, read-out: percentage phytotoxicity LOLPE

SMILES | pest or weed control at 30 g/ha [1, 11] | pest or weed control at 250 g/ha [1, 12] | plant injury at 30 g/ha [2, 13] | plant injury at 250 g/ha [2, 14] | pest or weed control at 30 g/ha [3] | pest or weed control at 250 g/ha [3] | plant injury at 30 g/ha [4] | plant injury at 250 g/ha [4] | plant injury at 250 g/ha [5] | pest or weed control at 30 g/ha [6] | pest or weed control at 250 g/ha [6] | plant injury at 250 g/ha [7] | pest or weed control at 30 g/ha [8] | pest or weed control at 250 g/ha [8] | pest or weed control at 30 g/ha [9, 15] | pest or weed control at 250 g/ha [9, 16] | pest or weed control at 250 g/ha (Lolium perenne (LOLPE); [18]) | pest or weed control at 250 g/ha (Avena fatua (AVEFA)) | pest or weed control at 250 g/ha [10] | pest or weed control at 250 g/ha (Setaria faberi (SETFA)) | further results
CC#Cc1cc(F)c(C2C(=O)C3CCC(C3)C2=O)c(OC(F)F)c1 (stereo not shown) [Compound A7] | 80% | 100% | 30% | 60% | 30% | 70% | 30% | 70% | 10% | 90% | 100% | 20% | 90% | 100% | 90% | 100% | 40% | 40% | 100% | 90% | pest or weed control at 125 g/ha ([1]; Zea mays, 360 h, 125 g/ha, 0.2% v/v X-77, read-out: percentage phytotoxicity ZEAMX): 90%; plant injury at 125 g/ha ([2]; Brassica napus, 360 h, 125 g/ha, read-out: percentage phytotoxicity BRSNN): 50%; pest or weed control at 125 g/ha ([3]; 125 g/ha): 70%; plant injury at 125 g/ha ([4]; 125 g/ha): 70%; plant injury at 30 g/ha ([5]; 30 g/ha): 0%; plant injury at 125 g/ha ([5]; 125 g/ha): 0%; pest or weed control at 125 g/ha ([6]; 125 g/ha): 100%; plant injury at 30 g/ha ([7]; 30 g/ha): 20%; plant injury at 125 g/ha ([7]; 125 g/ha): 20%; pest or weed control at 125 g/ha ([8]; 125 g/ha): 100%; pest or weed control at 125 g/ha ([9]; Echinochloa crus-galli, 360 h, 125 g/ha, 0.2% v/v X-77, read-out: percentage phytotoxicity ECHCG): 100%; pest or weed control at 30 g/ha (Lolium perenne (LOLPE); [17]): 0%; pest or weed control at 125 g/ha (Lolium perenne (LOLPE); Lolium perenne, 360 h, 125 g/ha, 0.2% v/v X-77, read-out: percentage phytotoxicity LOLPE): 30%; pest or weed control at 30 g/ha (Avena fatua (AVEFA)): 10%; pest or weed control at 125 g/ha (Avena fatua (AVEFA); 125 g/ha): 30%; pest or weed control at 30 g/ha [10]: 50%; pest or weed control at 125 g/ha ([10]; 125 g/ha): 90%; pest or weed control at 30 g/ha (Setaria faberi (SETFA)): 60%; pest or weed control at 125 g/ha (Setaria faberi (SETFA); 125 g/ha): 90%
CC#Cc1cc(F)c(C2C(=O)C3CCC(C)(C2=O)C3(C)C)c(OC)c1 (stereo not shown) [Compound A2] | – | 90% | – | 10% | – | 60% | – | 0% | 0% | – | – | 20% | – | 80% | – | 90% | 0% | 0% | 90% | 80% | –
CC#Cc1cc(F)c(C2C(=O)C3CCC(C3)C2=O)c(OC)c1 (stereo not shown) [Compound A1, 3-(2-Fluoro-6-methoxy-4-prop-1-ynyl-phenyl)-bicyclo[3.2.1]octane-2,4-dione] | 90% | 100% | 40% | 80% | 80% | 100% | 70% | 100% | 30% | 90% | 100% | – | 100% | 100% | 100% | 100% | 100% | 100% | 100% | 100% | percentage phytotoxicity ZEAMX ([1]; 250 g/ha, 0.2% v/v X-77): 100%; percentage phytotoxicity BRSNN ([2]; 250 g/ha): 80%; percentage phytotoxicity ECHCG ([9]; 30 g/ha): 100%; percentage phytotoxicity ECHCG ([9]; 250 g/ha): 100%; pest or weed control at 30 g/ha (Lolium perenne (LOLPE); [17]): 90%; percentage phytotoxicity LOLPE (Lolium perenne (LOLPE); 250 g/ha, 0.2% v/v X-77): 100%; pest or weed control at 30 g/ha (Avena fatua (AVEFA)): 90%; pest or weed control at 30 g/ha [10]: 90%; pest or weed control at 30 g/ha (Setaria faberi (SETFA)): 90%
